# Values of other authors as cited in patent publication US8765197B2, “Extract of herbal and composition containing the same” (Dong-A-Pharm, Co., Ltd., priority 2006, dated 2014).
# Test system: functional dyspepsia
compound,measurement,setting,value
COc1cc(N)c(Cl)cc1C(=O)NC1CCN(CCCOc2ccc(F)cc2)CC1OC (centres unmarked) [cisapride],cases in which effective,administered for 4 to 8 weeks,more than 70%
same,response rate,"functional dyspepsia, placebo 27-53%",50-82%
